Measurements reported in PMC5053481, “Structural Insights into the Methylation of C1402 in 16S rRNA by Methyltransferase RsmI” (PLoS ONE, 2016).

B1: RsmI truncation Gly12-Pro258 (E. coli 16S rRNA 2'-O-methyltransferase RsmI) (domain or fragment, Escherichia coli, UniProt P67087 12-258, looked up)
chain: GQLYIVPTPIGNLADITQRALEVLQAVDLIAAEDTRHTGLLLQHFGINARLFALHDHNEQQKAETLLAKLQEGQNIALVSDAGTPLINDPGYHLVRTCREAGIRVVPLPGPCAAITALSAAGLPSDRFCYEGFLPAKSKGRRDALKAIEAEPRTLIFYESTHRLLDSLEDIVAVLGESRYVVLARELTKTWETIHGAPVGELLAWVKEDENRRKGEMVLIVEGHKAQEEDLPADALRTLALLQAELP
notes: RsmI, AdoMet-dependent methyltransferase for 2'-O-methylation of C1402 in 16S rRNA, Escherichia coli, residues Gly12-Pro258; It was co-crystallised with the cofactor AdoMet; The asymmetric unit holds three molecules: one non-crystallographic dimer and one half of a crystallographic dimer; also called RmsI; RsmI (G12-P258); source: expressed and purified as reported previously [15]

What was measured:
[1] = target: RsmI (full-length) (Escherichia coli, UniProt P67087); experiment: isothermal titration calorimetry, one-site model; format: binding; details: read-out: Ka (10^4/M) (converted)
[2] = target: RsmI (G12-P258) (Escherichia coli, UniProt P67087); experiment: X-ray crystal structure, […] Å; format: binding; details: co-crystallised, AdoMet:RsmI 5:1; site between NTD and CTD
[3] = target: RsmI (full-length) (Escherichia coli, UniProt P67087, Y169A); experiment: isothermal titration calorimetry, one-site model; format: binding; details: read-out: Ka (10^4/M) (converted)
[4] = target: RsmI (full-length) (Escherichia coli, UniProt P67087, F144A); experiment: isothermal titration calorimetry, one-site model; format: binding; details: read-out: Ka (10^4/M) (converted)
[5] = target: the molecule itself; experiment: SEC; gel filtration on Superdex 200 10/300 GL; purified RsmI (Gly12-Pro258) eluted at 15.0 ml, compared with protein standards

RsmI (full-length) (Escherichia coli, UniProt P67087, F144A), sequence (P67087 whole entry F144A): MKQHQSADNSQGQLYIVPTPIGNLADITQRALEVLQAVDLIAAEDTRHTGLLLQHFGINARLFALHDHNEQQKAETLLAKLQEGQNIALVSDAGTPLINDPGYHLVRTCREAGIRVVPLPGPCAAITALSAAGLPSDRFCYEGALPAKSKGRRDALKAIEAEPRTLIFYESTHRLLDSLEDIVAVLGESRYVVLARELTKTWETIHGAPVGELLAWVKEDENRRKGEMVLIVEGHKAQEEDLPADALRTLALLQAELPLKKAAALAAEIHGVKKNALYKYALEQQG
RsmI (full-length) (Escherichia coli, UniProt P67087), sequence (P67087 whole entry): as the sequence (P67087 whole entry F144A) above, with A144F counted along it
RsmI (full-length) (Escherichia coli, UniProt P67087, Y169A), sequence (P67087 whole entry Y169A): as the sequence (P67087 whole entry F144A) above, with A144F, Y169A counted along it

Molecule	Kd [1] [µM]	X-ray crystal structure, 2.20 Å [2]	Kd [3] [µM]	Kd [4] [µM]	stoichiometry N [5]
C[S+](CC[C@H](N)C(=O)O)C[C@H]1O[C@@H](n2cnc3c(N)ncnc32)[C@H](O)[C@@H]1O (some centres unmarked) [AdoMet]	23.3	coordinate and structure factor of RsmI-AdoMet complex have been deposited with the RCSB PDB	24.2	67.6	–
B1	–	–	–	–	2
